Measured values taken from patent publication US9302999B2, “Substituted triazoles as herbicides” (E. I. DU PONT DE NEMOURS AND COMPANY, priority 2012, dated 2016).

Columns and labels:
Format in all cases: in vivo
[1] = tested on: chamomile (scentless chamomile, Matricaria inodora); experiment: Test D pre-/postemergence: chamomile
Source text: Seeds of plant species selected from bluegrass (annual bluegrass, Poa annua), blackgrass (Alopecurus myosuroides), canarygrass (Phalaris minor), chickweed (common chickweed, Stellaria media), galium (catchweed bedstraw, Galium aparine), bromegrass, downy (downy bromegrass, Bromus tectorum), field poppy (Papaver rhoeas), field violet (Viola arvensis), foxtail, green (green foxtail, Setaria viridis), deadnettle (henbit deadnettle, Lamium amplexicaule), ryegrass, Italian (Italian ryegrass, Lolium multiflorum), kochia (Kochia scoparia), lambsquarters (Chenopodium album), oilseed rape (Brassica napus), pigweed (Amaranthus retroflexus), Russian thistle (Salsola iberica), chamomile (scentless chamomile, Matricaria inodora), speedwell (bird's-eye speedwell, Veronica persica), barley, spring (spring barley, Hordeum vulgare), wheat, spring (spring wheat, Triticum aestivum), buckwheat, wild (wild buckwheat, Polygonum convolvulus), mustard, wild (wild mustard, Sinapis arvensis), oat, wild (wild oat, Avena fatua), radish, wild (wild radish, Raphanus raphanistrum), windgrass (Apera spica-venti), barley, winter (winter barley, Hordeum vulgare), and wheat, winter (winter wheat, Triticum aestivum) were planted into a silt loam soil and treated preemergence with test chemicals formulated in a non-phytotoxic solvent mixture which included a surfactant. At the same time, these same crop and weed species were planted in pots containing the planting medium comprising spaghnum peat moss, vermiculite, wetting agent and starter nutrients and treated with postemergence applications of the test chemicals formulated in the same manner. Plants ranged in height from 2 to 18 cm (1- to 4-leaf stage).
(§1) Treated plants and controls were maintained in a controlled growth environment for 14 to 21 days after which time all species were compared to controls and visually evaluated. Plant response ratings, summarized in Table D, are based on a scale of 0 to 100 where 0 is no effect and 100 is complete control. A dash (-) response means no test result.

[2] = tested on: poinsettia, wild (wild poinsettia, Euphorbia heterophylla); experiment: Test F pre-/postemergence: poinsettia, wild
Source text: (§2) Seeds of plant species selected from corn (Zea mays), soybean (Glycine max), velvetleaf (Abutilon theophrasti), lambsquarters (Chenopodium album), poinsettia, wild (wild poinsettia, Euphorbia heterophylla), pigweed, palmer (palmer pigweed, Amaranthus palmeri), waterhemp (common waterhemp, Amaranthus rudis), surinam grass (Brachiaria decumbens), crabgrass, Brazil (Brazilian crabgrass, Digitaria horizontalis), panicum, fall (fall panicum Panicum dichotomiflorum), crabgrass, large (large crabgrass, Digitaria sanguinalis), foxtail, giant (giant foxtail, Setaria faberii), foxtail, green (green foxtail Setaria viridis), goosegrass (Eleusine indica), ragweed (common ragweed, Ambrosia elatior), barnyardgrass (Echinochloa crus-galli), sandbur (southern sandbur, Cenchrus echinatus), arrowleaf sida (Sida rhombifolia), ryegrass, Italian (Italian ryegrass, Lolium multiflorum), dayflower, VA (Virginia (VA) dayflower, Commelina virginica), field bindweed (Convolvulus arvensis), cocklebur (common cocklebur, Xanthium strumarium), morningglory (Ipomoea coccinea), nightshade (eastern black nightshade, Solanum ptycanthum), kochia (Kochia scoparia), nutsedge, yellow (yellow nutsedge, Cyperus esculentus), johnsongrass (Sorghum halepense), smartweed (ladysthumb smartweed, Polygonum persicaria), and beggarticks (hairy beggarticks, Bidens pilosa), were planted into a silt loam soil and treated preemergence with test chemicals formulated in a non-phytotoxic solvent mixture which included a surfactant. At the same time, plants selected from these crop and weed species and also pigweed (Amaranthus retroflexus), waterhemp_RES1 (ALS/Triazine resistant common waterhemp, Amaranthus rudis) and waterhemp_RES2 (ALS/HPPD resistant common waterhemp, Amaranthus rudis) were planted in pots containing a planting medium comprising spaghnum peat moss, vermiculite, wetting agent and starter nutrients treated with postemergence applications of some of the test chemicals formulated in the same manner. Plants ranged in height from 2 to 18 cm for postemergence treatments (1- to 4-leaf stage).
as §1, with “greenhouse” for “controlled growth environment”, “days,” for “days”, “E,” for “D,”

[3] = tested on: foxtail, giant (giant foxtail, Setaria faberii); experiment: Test F pre-/postemergence: foxtail, giant; settings: Preemergence
Source text: as §2
as §1, with “greenhouse” for “controlled growth environment”, “days,” for “days”, “E,” for “D,”

[4] = tested on: foxtail, green (green foxtail Setaria viridis); experiment: Test F pre-/postemergence: foxtail, green; settings: Preemergence
Source text: as §2
as §1, with “greenhouse” for “controlled growth environment”, “days,” for “days”, “E,” for “D,”

[5] = tested on: dayflower, VA (Virginia (VA) dayflower, Commelina virginica); experiment: Test F pre-/postemergence: dayflower, VA
Source text: as §2
as §1, with “greenhouse” for “controlled growth environment”, “days,” for “days”, “E,” for “D,”

[6] = tested on: cocklebur (common cocklebur, Xanthium strumarium); experiment: Test F pre-/postemergence: cocklebur; settings: Preemergence, scale 0 to 100
Source text: as §2
as §1, with “greenhouse” for “controlled growth environment”, “days,” for “days”, “E,” for “D,”

[7] = tested on: kochia (Kochia scoparia); experiment: Test F pre-/postemergence: kochia; settings: Preemergence
Source text: as §2
as §1, with “greenhouse” for “controlled growth environment”, “days,” for “days”, “E,” for “D,”

[8] = tested on: pigweed, palmer (palmer pigweed, Amaranthus palmeri); experiment: Test F pre-/postemergence: pigweed, palmer
Source text: as §2
as §1, with “greenhouse” for “controlled growth environment”, “days,” for “days”, “E,” for “D,”

[9] = Postemergence, 31 g ai/ha, scale 0 to 100 (0 no effect, 100 complete control)
[10] = Postemergence, 62 g ai/ha, scale 0 to 100 (0 no effect, 100 complete control)
[11] = Postemergence, 125 g ai/ha, scale 0 to 100, 0 no effect, 100 complete control
[12] = Postemergence, 16 g ai/ha, scale 0 to 100
[13] = Preemergence, 16 g ai/ha, scale 0 to 100, 0 no effect, 100 complete control
[14] = Preemergence, 31 g ai/ha, scale 0 to 100, 0 no effect, 100 complete control
[15] = Preemergence, 125 g ai/ha, scale 0 to 100
[16] = Preemergence, 250 g ai/ha, scale 0 to 100
[17] = 16 g ai/ha, scale 0 to 100, 0 no effect, 100 complete control
[18] = 31 g ai/ha, scale 0 to 100, 0 no effect, 100 complete control
[19] = Preemergence, 62 g ai/ha, scale 0 to 100
[20] = Postemergence, 8 g ai/ha, scale 0 to 100
[21] = Postemergence, 31 g ai/ha, scale 0 to 100
[22] = Postemergence, 62 g ai/ha, scale 0 to 100
[23] = Postemergence, 125 g ai/ha, scale 0 to 100

With `COc1nn(-c2ccc(C(F)(F)F)cc2)nc1Cc1ccnc(C(F)F)c1` [Compound 138] the “Plant response rating: Chamomile” value [1, 9] was 10, the “Plant response rating: Chamomile” value [1, 10] was 30 and the “Plant response rating: Chamomile” value [1, 11] was 60. For the same compound, the “Plant response rating: Chamomile” value ([1]; Postemergence, 250 g ai/ha, scale 0 to 100 (0 no effect, 100 complete control)) was 80 and the “Plant response rating, Chamomile” value [1, 12] was 0.

With `COc1nn(-c2cccc(F)c2)nc1Cc1ccnc(C(F)(F)F)c1` [Compound 139] the “Plant response rating, Poinsettia, Wild” value [2, 13] was 0, the “Plant response rating, Poinsettia, Wild” value [2, 14] was 20 and the “Plant response rating, Poinsettia, Wild” value [2, 15] was 75. The “Plant response rating, Poinsettia, Wild” value [2, 16] was 80, the “Plant response rating, Foxtail, Giant” value [3, 17] was 0 and the “Plant response rating, Foxtail, Giant” value [3, 18] was 40. For the same compound, the “Plant response rating, Foxtail, Giant” value ([3]; 62 g ai/ha, scale 0 to 100) was 85, the “Plant response rating, Foxtail, Giant” value ([3]; 125 g ai/ha, scale 0 to 100) was 98 and the “Plant response rating, Foxtail, Giant” value ([3]; 250 g ai/ha, scale 0 to 100) was 100. For the same compound, the “Plant response rating, Foxtail, Green” value [4, 17] was 10, the “Plant response rating, Foxtail, Green” value [4, 18] was 35 and the “Plant response rating, Foxtail, Green” value ([4]; 62 g ai/ha, scale 0 to 100) was 98. For the same compound, the “Plant response rating, Foxtail, Green” value ([4]; 125 g ai/ha, scale 0 to 100) was 100, the “Plant response rating, Foxtail, Green” value ([4]; 250 g ai/ha, scale 0 to 100) was 100 and the “Plant response rating, Dayflower, VA” value [5, 13] was 0. The “Plant response rating, Dayflower, VA” value [5, 14] was 5, the “Plant response rating, Dayflower, VA” value [5, 19] was 30 and the “Plant response rating, Dayflower, VA” value [5, 15] was 60. For the same compound, the “Plant response rating, Dayflower, VA” value [5, 16] was 65, the “Plant response rating, Cocklebur” value ([6]; 62 g ai/ha) was 0 and the “Plant response rating, Cocklebur” value ([6]; 125 g ai/ha) was 0. The “Plant response rating, Kochia” value [7, 17] was 0, the “Plant response rating, Kochia” value [7, 18] was 0 and the “Plant response rating, Kochia” value ([7]; 62 g ai/ha, scale 0 to 100) was 35. The “Plant response rating, Kochia” value ([7]; 125 g ai/ha, scale 0 to 100) was 90 and the “Plant response rating, Kochia” value ([7]; 250 g ai/ha, scale 0 to 100) was 98.

With `Cc1nn(-c2ccnc(Cl)c2)nc1Cc1ccnc(C(F)(F)F)c1` [Compound 141] the “Plant response rating, Poinsettia, Wild” value [2, 20] was 60, the “Plant response rating, Poinsettia, Wild” value [2, 12] was 80 and the “Plant response rating, Poinsettia, Wild” value [2, 21] was 85. For the same compound, the “Plant response rating, Poinsettia, Wild” value [2, 22] was 95, the “Plant response rating, Poinsettia, Wild” value [2, 23] was 98 and the “Plant response rating, Pigweed, Palmer” value [8, 20] was 95. The “Plant response rating, Pigweed, Palmer” value [8, 12] was 95, the “Plant response rating, Pigweed, Palmer” value [8, 21] was 95 and the “Plant response rating, Pigweed, Palmer” value [8, 22] was 100. The “Plant response rating, Pigweed, Palmer” value [8, 23] was 100, the “Plant response rating, Dayflower, VA” value [5, 20] was 10 and the “Plant response rating, Dayflower, VA” value [5, 12] was 10. For the same compound, the “Plant response rating, Dayflower, VA” value [5, 21] was 35, the “Plant response rating, Dayflower, VA” value [5, 22] was 60 and the “Plant response rating, Dayflower, VA” value [5, 23] was 75.

With `Cc1nn(-c2ccc(F)cc2F)nc1Oc1ccnc(C(F)(F)F)c1` [Compound 146] the “Plant response rating, Poinsettia, Wild” value [2, 13] was 20, the “Plant response rating, Poinsettia, Wild” value [2, 14] was 20 and the “Plant response rating, Poinsettia, Wild” value [2, 15] was 40. The “Plant response rating, Poinsettia, Wild” value [2, 16] was 40, the “Plant response rating, Pigweed, Palmer” value [8, 13] was 85 and the “Plant response rating, Pigweed, Palmer” value [8, 14] was 100. For the same compound, the “Plant response rating, Pigweed, Palmer” value [8, 15] was 100, the “Plant response rating, Pigweed, Palmer” value [8, 16] was 100 and the “Plant response rating, Foxtail, Giant” value [3, 17] was 20. For the same compound, the “Plant response rating, Foxtail, Giant” value [3, 18] was 20, the “Plant response rating, Foxtail, Giant” value ([3]; 62 g ai/ha, scale 0 to 100) was 90 and the “Plant response rating, Foxtail, Giant” value ([3]; 125 g ai/ha, scale 0 to 100) was 98. For the same compound, the “Plant response rating, Foxtail, Giant” value ([3]; 250 g ai/ha, scale 0 to 100) was 100, the “Plant response rating, Foxtail, Green” value [4, 17] was 20 and the “Plant response rating, Foxtail, Green” value [4, 18] was 20. The “Plant response rating, Foxtail, Green” value ([4]; 62 g ai/ha, scale 0 to 100) was 50, the “Plant response rating, Foxtail, Green” value ([4]; 125 g ai/ha, scale 0 to 100) was 100 and the “Plant response rating, Foxtail, Green” value ([4]; 250 g ai/ha, scale 0 to 100) was 100. For the same compound, the “Plant response rating, Dayflower, VA” value [5, 13] was 0, the “Plant response rating, Dayflower, VA” value [5, 14] was 0 and the “Plant response rating, Dayflower, VA” value [5, 19] was 10. The “Plant response rating, Dayflower, VA” value [5, 15] was 35, the “Plant response rating, Dayflower, VA” value [5, 16] was 35 and the “Plant response rating, Kochia” value [7, 17] was 0. The “Plant response rating, Kochia” value [7, 18] was 5, the “Plant response rating, Kochia” value ([7]; 62 g ai/ha, scale 0 to 100) was 30 and the “Plant response rating, Kochia” value ([7]; 125 g ai/ha, scale 0 to 100) was 50. The “Plant response rating, Kochia” value ([7]; 250 g ai/ha, scale 0 to 100) was 98.

With `Cc1nn(-c2ccc(F)c(C(F)(F)F)c2)nc1Cc1ccnc(C(F)(F)F)c1` [Compound 156] the “Plant response rating: Chamomile” value [1, 9] was 70, the “Plant response rating: Chamomile” value [1, 10] was 75 and the “Plant response rating: Chamomile” value [1, 11] was 100. For the same compound, the “Plant response rating, Chamomile” value [1, 12] was 50, the “Plant response rating, Chamomile” value [1, 13] was 10 and the “Plant response rating, Chamomile” value [1, 14] was 55. For the same compound, the “Plant response rating, Chamomile” value [1, 19] was 100 and the “Plant response rating, Chamomile” value [1, 15] was 100.
